Results from patent publication US5120538A, “Combinations of compounds isolated from curcuma spp as anti-inflammatory agents” (PT Darya-Varia Laboratoria, priority 1990, dated 1992).

Experiments:
[1] = tested on: bacteria; details: in vitro; cited from earlier work
[2] = tested on: cholesterol levels; details: rats; cited from earlier work
[3] = tested on: inflammation; details: cited from earlier work
[4] = tested on: choleretic effect of curcumin; details: cited from earlier work
[5] = tested on: Oedema of right-hind paw induced by injection of 1% carrageenan solution; experiment: Carrageenan-induced paw oedema inhibition in rats; format: in vivo, Male inbred albino rats, Wistar derived LMR strain; details: rat, 0.01 g one hour before induction, controls safflower oil
Description: Male inbred albino rats of the Wistar derived LMR strain, weighing between 140 and 160 grams are used. Each treatment group consists of ten rats. The rats are fasted for one night and weighed the next morning. Oedema is induced in the right-hind paw of each rat by means of an injection of 1% carrageenan solution. Before the injection and each hour after injection, the volume of the right-hind paw is measured. Measurement of the volume is done by dipping the rats paw into a liquid up to a predetermined mark and measuring or weighing the displaced liquid. The apparatus for measuring volume is calibrated against objects with known volumes. Animals in the treatment groups are administered the drug orally once an hour for three hours before induction of oedema. Animals in the control groups are administered either safflower oil or polyethyleneglycol (PEG) one hour before induction. Piroxicam, a known anti-inflammatory agent used as a positive control, is administered one hour before induction.

COc1cc(/C=C/C(=O)CC(=O)/C=C/c2ccc(O)c(OC)c2)ccc1O [Curcumin, diferuloylmethane]
antibacterial activity [1]: antibacterial activity | cholesterol levels [2]: lower cholesterol levels | anti-inflammatory effects [3]: anti-inflammatory effects

O=C(C=Cc1ccc(O)cc1)CC(=O)C=Cc1ccc(O)cc1 [Bis-desmethoxycurcumin, dihydroxydicinnamoyl methane]
choleretic effect of curcumin [4]: inhibit the choleretic effect of curcumin

CN1C(C(=O)Nc2ccccn2)=C(O)c2ccccc2S1(=O)=O [Piroxicam]
% Oedema Inhibition over 6 Hr. Period After Induction, 1 hr. ([5]; 1 hr. after induction): 25.9% | % Oedema Inhibition over 6 Hr. Period After Induction, 2 hr. ([5]; 2 hr. after induction): 49.0% | % Oedema Inhibition over 6 Hr. Period After Induction, 3 hr. ([5]; 3 hr. after induction): 52.6% | % Oedema Inhibition over 6 Hr. Period After Induction, 4 hr. ([5]; 4 hr. after induction): 43.4% | % Oedema Inhibition over 6 Hr. Period After Induction, 5 hr. ([5]; 5 hr. after induction): 41.4% | % Oedema Inhibition over 6 Hr. Period After Induction, 6 hr. ([5]; 6 hr. after induction): 36.5%
